Measurements: US11974981B2, “Methods and compositions for treating endometriosis and endometriosis associated symptoms” (The Board of Trustees of the Leland Stanford Junior …, priority 2017, dated 2024)
Entries after “also recorded” stand apart in the source; their conditions may differ.

Legend:
[1] = tested on: homozygous ALDH2*2 knock-in mice; test: mouse surgical model of endometriosis, endometrial cyst area, ALDH2*2 knock-in mice; assay type: in vivo; conditions: ALDH2*2 mice, vs DMSO
Excerpt: (§1) FIG. 2A-2C. Relative to wild type mice, ALDH2*2 mice develop larger endometrial cysts by 3 days after endometriosis surgery. FIG. 2A In a mouse surgical model of endometriosis, three (2 mm×2 mm) uterine horn auto transplants are sutured onto cascading mesenteric arteries which in turn since located outside the uterus develop cysts in the abdomen. FIG. 2B Female wild type (C57/BL6) and ALDH2*2 knock-in mice on the same genetic background 8-10 weeks of age were induced with endometriosis and sacrificed 1, 3, or 28 days later. Endometrial cysts were collected and cyst area was measured (length×width). FIG. 2C Average cyst area was calculated for each group (wild type: blue, ALDH2*2: red) of mice at day 1, 3, and 28. Data are presented as mean±SEM, n=6 mice/group.
(§2) FIG. 3A-3D. Alda-1 reduces endometrial cyst size 3 days and 28 days after endometriosis induction. FIG. 3A. […] FIG. 3B. […]
(§3) Briefly, mice were anesthetized with isoflurane (1-3%) and an off-midline (left side) incision made through the skin and muscle layer to expose the pelvic and abdominal organs. […] On day 1, 3, or 28 after endometriosis induction, mice were sacrificed, endometrial cyst length and width measured to calculate cyst area, and then the average cyst area per group determined.

[2] = tested on: female Sprague-Dawley rats; test: acetaldehyde-induced vaginal hyperalgesia, escape response to vaginal balloon distention; assay type: in vivo, rat; conditions: Alda-1 1 mg/kg i.p. alone, in the absence of the noxious stimulus
Excerpt: FIG. 1A-1C. Alda-1 mitigates acetaldehyde-induced vaginal hyperalgesia in rats. FIG. 1A Five female Sprague-Dawley rats initially weighing 150-175 g were trained over a period of ˜4 weeks to terminate an escape response from the noxious stimuli produced by a balloon inflated in the vagina. Top image: Rats trained to be accustomed to the testing chamber. Bottom image: The escape response assessed by the rat poking its head into a tube. This response in turn breaks an infrared beam and causes the vaginal balloon to deflate. […] The shaded area is calculated as the area under the curve. n=5 rats/volume FIG. 1C Histogram of vaginal escape response expressed as the area under the curve calculated using standard trapezoid methods. […]
Alda and endonetriosis: Although rodent inflammatory pain models such as carageenan and CFA may represent some aspects of endometriosis, there is a validated rat model of endometriosis-associated pain, which produces signs and painful symptoms similar to those in women (S. McAllister, K. McGinty, D. Resuehr, K. Berkley. Endometriosis-induced vaginal hyperalgesia in the rat: Role of the ectopic growths and their innervation. Pain. 147: 255-264 (2009)). […] The rat is then monitored to determine an escape response, which is assessed by the rodent breaking an infrared beam with its nose; this, in turn, causes the inflated balloon in the vagina to deflate (FIG. 1A). […]

[3] = tested on: wild type C57/BL6 mice; test: mouse surgical model of endometriosis, endometrial cyst area, wild type mice; assay type: in vivo; conditions: vs DMSO
Excerpt: as §1, §2, §3

[4] = tested on: rodent models of inflammatory pain; conditions: earlier work of the inventors; cited from earlier work
[5] = Alda-1 5 mg/kg subcutaneous Alzet pump for 3 days

O=C(NCc1ccc2c(c1)OCO2)c1c(Cl)cccc1Cl [Alda-1, N-(1,3-benzodioxol-5-ylmethyl)-2,6-dichlorobenzamide]
average endometrial cyst area [1, 5]: significant reduction; also recorded: significantly reduced | average endometrial cyst area ([1]; Alda-1 5 mg/kg subcutaneous Alzet pump for 28 days): significant reduction; also recorded: significantly reduced | vaginal escape response (area under the curve), effect of compound alone [2]: No effect | average endometrial cyst area [3, 5]: significant reduction | average endometrial cyst area ([3]; Alda-1 5 mg/kg subcutaneous Alzet pump for 28 days, 5 mg/kg): significant reduction; also recorded: significantly reduced | pain thresholds [4]: increases pain thresholds
